Ends that are not written are not given here. * marks the point of attachment. Biotin = O=C1N[C@H]2[C@H](CS[C@H]2CCCCC(=O)*)N1
Legend:
PD-L1 [1] = molecular target: T1, PD-L1 (Homo sapiens, UniProt Q9NZQ7); assay: Immunohistochemistry using biotinylated peptide on FFPE tissues; type: binding; design: Seven PD-L1 expressing NSCLC patient tissues were obtained from the MU OneHealth tissue bank; tissue MU OneHealth tissue bank; U.S. Biomax (TMA) LC1923; host or cells: FFPE placenta, seven NSCLC patient tissues, 192-case lung cancer tissue microarray, four Hodgkin's lymphoma cases; conditions: for staining of placental trophoblasts: FFPE placenta tissue (positive control), FIG. 8
From the text: To detect PD-L1 in FFPE tissues, manual IHC techniques were employed with a biotin-conjugated version of peptide RK-10-Cy5 and compared with Ventana PD-L1 (SP263) Rabbit monoclonal Primary Antibody stained on a Roche Benchmark Ultra autostainer. Seven PD-L1 expressing NSCLC patient tissues were obtained from the MU OneHealth tissue bank and de-identified according to IRB protocols. Paraffin-embedded patient tissue slides were baked overnight, then de-waxed and rehydrated according to standard protocols. Tissue sections were then subjected to antigen retrieval in EDTA at 95° C. for 20 minutes in EDTA […]. The solution is then cooled for an additional 20 minutes on the bench top prior to buffer rinse. Tissues were then incubated with […] for 2 hours in a humid chamber at RT. After 2 hours, slides were washed with buffer and treated with PIERCE™ High Sensitivity Streptavidin-HRP (1:200 dilution) (Sigma) for 30 minutes at RT in a humid chamber. Once this was complete, slides were again washed in buffer then treated with DAB (3,3′-Diaminobenzidine; Sigma) for 10 minutes. Slides were again washed in buffer, then dehydrated using graded alcohol and xylene and counterstained with hematoxylin. Slides were then imaged using bright-field microscopy on a Leica DM5500.
Seven Patient NSCLC tissues were investigated for PD-L1 using either manual IHC with 15 μM RK-10-Biotin peptide, or the Ventana PD-L1 (SP263) rabbit monoclonal primary antibody stained on a Roche Benchmark Ultra. In this study the peptide was conjugated with biotin, which was used to bind a secondary treatment of streptavidin-HRP. Formalin-Fixed, Paraffin Embedded (FFPE) placenta tissue was used as the positive control, since PD-L1 is expressed in placental trophoblasts (Veras, E., Kurman, R. J., Wang, T.-L. & Shih, I.-M. International Journal of Gynecological Pathology Publish Ahead of Print). This study also utilized biotinylated mock peptide RK-11-Biotin as a negative control. This mock peptide was synthesized to have very low affinity to PD-L1. Both the PD-L1 peptide and Ventana clone SP263 stained the trophoblasts heavily in the placental tissue (FIG. 8). […] Blocking of the Ventana antibody was achieved by first treating the placenta tissue with RK-10-Biotin for 30 minutes, washing, and treating on the Roche autostainer according to specifications. […] As a negative control, normal lung, breast, and colorectal tissues were stained using RK-10 and SP263.
Once confidence in PD-L1 staining was established in repeated placenta tissues, staining in seven NSCLC patient tissues (patients ‘A’ through ‘G’) was compared with the Ventana SP263 antibody and RK-10-Biotin (FIG. 9). […]

PD-L1 [2] = molecular target: T1, PD-L1; assay: IHC blocking using PD-L1 peptide or Ventana antibody SP263; type: binding; design: Seven PD-L1 expressing NSCLC patient tissues were obtained from the MU OneHealth tissue bank; tissue MU OneHealth tissue bank; U.S. Biomax (TMA) LC1923; host or cells: FFPE placenta, seven NSCLC patient tissues, 192-case lung cancer tissue microarray, four Hodgkin's lymphoma cases; conditions: placenta tissue treated with RK-10-Biotin for 30 minutes, then Ventana SP263 on Roche autostainer, FIG. 8 panel c
Method: To test specificity of the PD-L1 peptide, PD-L1 receptors were first blocked on the tissue with RK-10 peptide for 1 hour prior to autostaining the tissue with SP263 antibody using the Roche autostainer with the Ventana PD-L1 kit according to Roche's specifications. Blocking of the RK-10 peptide using the SP263 antibody was also investigated by first treating the tissue with SP263 antibody for 30 minutes prior to treating the tissue with peptide according to the previously mentioned protocol.
Seven Patient NSCLC tissues were investigated for PD-L1 using either manual IHC with 15 μM RK-10-Biotin peptide, or the Ventana PD-L1 (SP263) rabbit monoclonal primary antibody stained on a Roche Benchmark Ultra. In this study the peptide was conjugated with biotin, which was used to bind a secondary treatment of streptavidin-HRP. Formalin-Fixed, Paraffin Embedded (FFPE) placenta tissue was used as the positive control, since PD-L1 is expressed in placental trophoblasts (Veras, E., Kurman, R. J., Wang, T.-L. & Shih, I.-M. International Journal of Gynecological Pathology Publish Ahead of Print). This study also utilized biotinylated mock peptide RK-11-Biotin as a negative control. This mock peptide was synthesized to have very low affinity to PD-L1. Both the PD-L1 peptide and Ventana clone SP263 stained the trophoblasts heavily in the placental tissue (FIG. 8). […]

T1 sequence (Q9NZQ7 19-290): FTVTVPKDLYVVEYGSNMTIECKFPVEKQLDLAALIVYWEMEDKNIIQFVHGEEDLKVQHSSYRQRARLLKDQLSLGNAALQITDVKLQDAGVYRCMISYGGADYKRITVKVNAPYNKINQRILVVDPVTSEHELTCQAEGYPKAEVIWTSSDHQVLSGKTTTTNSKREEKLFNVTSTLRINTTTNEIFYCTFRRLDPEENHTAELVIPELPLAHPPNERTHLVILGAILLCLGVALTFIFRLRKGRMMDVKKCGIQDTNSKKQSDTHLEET

Substance	staining of placental trophoblasts (PD-L1 [1])	SP263 staining after pre-blocking with peptide (PD-L1 [2])	tumor staining in NSCLC patient tissues (PD-L1 [1]; seven NSCLC patient tissues A-G, 15 μM peptide, FIG. 9)	staining of normal tissues (PD-L1 [1]; normal lung, breast and colorectal tissues (negative control))
Biotin-GSGSGSFVLNWYRMSPSNQTDKLAA [RK-11-Biotin]	light staining at high concentrations	–	–	–
Biotin-GSGSGSTYLCGAISLAPKAQIKESL [RK-10-Biotin]	heavy membrane staining of the trophoblast cells	drastic reduction of staining	heaviest staining was observed localized to the tumor regions of the tissues	–
GSGSGSTYLCGAISLAPKAQIKESL [RK-10]	–	–	–	negative for PD-L1 expression

Source: US11447550B2, “Peptides for molecular detection of PD-L1” (THE CURATORS OF THE UNIVERSITY OF MISSOURI, priority 2016, dated 2022)
